Measured values from patent publication EP0499648A1, “Enzymatically debranched starches as tablet excipients” (National Starch and Chemical Investment Holding Corporation, priority 1991, dated 1992).

Columns and labels:
[1] = Direct compression tabletting of APAP formula: compression profile (tablet hardness vs. press pressure setting); type: physicochemical; conditions: 64% APAP, 34.75% binder
Experimental: (§1) Direct compression tabletting in a laboratory scale tablet press (Stokes, Model B-2, 16 station rotary tablet press with 3/8'' standard concave punches, obtained from Stokes Co., Warminster, PA) was used to prepare tablets from the following formula: […]
All ingredients except the binder were dry blended, screened through a 10 mesh sieve and blended with the binder.
(§2) Tablets weighing from 360-460 mg were formed in the tablet press at pressure settings from A (low) to I (high) by adjusting the weight setting for each pressure setting. Compressibility is expressed as a profile obtained by increasing the pressure setting until the accompanying increases in the tablet hardness measurements leveled off. Tablet hardness was determined on a hydraulic tablet hardness tester (Delamar, Model PT 1000, obtained from VanKel Industries, Edison, New Jersey) in units of Kg/cm².

[2] = Visual observation of direct compression APAP tablets (structural integrity, capping, splitting, surface); type: physicochemical; conditions: direct compression APAP formula
Experimental: as §1, §2
The starch debranching and tabletting methods of Example 1 were employed to make direct compression tablets according to the formula of Example 1.

CC(=O)Nc1ccc(O)cc1 [100% APAP, Acetaminophen]
Tablet Hardness ([1]; machine position A (low pressure setting)): 0 Kg/cm² | Tablet Hardness ([1]; machine position B): 0 Kg/cm² | Tablet Hardness ([1]; machine position C): 0 Kg/cm² | Tablet Hardness ([1]; machine position D): 0 Kg/cm² | Tablet Hardness ([1]; machine position E): 0 Kg/cm² | Tablet Hardness ([1]; machine position F): 0 Kg/cm² | Tablet Hardness ([1]; machine position G): 0 Kg/cm² | Tablet Hardness ([1]; machine position H): 0 Kg/cm² | Tablet Hardness ([1]; machine position I (high pressure setting)): 0 Kg/cm² | compressibility and structural integrity of tablets (visual observation) [2]: a. Not compressible. | compressibility and structural integrity of tablets (visual observation) ([2]; listed as acetaminophen (APAP)): does not compress to form a tablet
